From patent US6468977B1, “Thiadiazole compounds useful as inhibitors of cysteine activity dependent enzymes” (Apotex Inc., priority 1998, dated 2002) come the findings set out here.

Structures can show the parent of a compound that is named as a salt.

For orientation: melting point means the temperature of the solid-liquid transition.

In one series the target is T1, Cathepsin B (Homo sapiens, UniProt P07858).
T1 construct: purchased Athens Research and Technology, Inc
In words: Inhibition of cathepsin B, enzyme inactivation kinetics. The format is biochemical. The conditions noted are these: 25° C.; for k3 / kinact/KI / k3/Ki (second order rate of inhibition): pH 6.0; for Ki: pH 6.0, substrate N-Cbz-Phe-Arg 7-amido-4-methylcoumarin 100 μM; for kinact/KI: read-out: k3/Ki (second order rate of inhibition). How it is done:
Enzyme assays and kinetic measurements.
Enzyme regeneration. Cathepsin B (Athens Research and Technology, Inc.) was regenerated by incubation with 2.5 mM dithioerythritol, 2.5 mM EDTA and 0.005% (v/v) Brij-35 in 50 mM potassium phosphate pH 6.0 for 5 min. at 25° C. The excess of dithioerythritol was removed by size exclusion chromatography on a NAP-10 column (Pharmacia) equilibrated with 20 mM sodium acetate pH 5.0 containing 10 mM EDTA. Enzyme activated in this way was used within several hours.
Measurement of inactivation constants:
The reactions were incubated at 25° C. […] The reaction progress curves were recorded continuously over five half-lives. […] Briefly, the reaction progress curves were analyzed by non-linear regression to the exponential equation (2) and pseudo-first order rate coefficients (kapp.) were calculated for each inhibitor concentration. [drawing 36] Fluorescence=Ae^−k^app.^t+B (2)
Second order rate for inhibition (ki/Ki), ki and Ki were determined from equation (3) by plotting (I/kapp.) vs. [I]; [formula]
where Km is the Michaelis-Menten constant, [I] is inhibitor concentration and [S] is substrate concentration.

Series [1] deals with IL-1 induced proteoglycan degradation of articular cartilage. Description: IL-1-induced proteoglycan degradation of articular cartilage explants in vitro. Conditions: 1×10^−6 M, IL-1 50 ng/ml, 72 h, p=0.023. The format is cell-based, calf. The method, then:
The effect of Apo501 on IL-1 (interleukin) induced proteoglycan degradation of articular cartilage from normal calf joints was investigated in-vitro. Articular cartilage was sliced aseptically from the distal forelimb joints of less than 6-month old calves. […] The pooled, punched cartilage was washed and incubated in 20 ml of Ham's F12 medium with 5% FBS and 3% antibiotics for 72 hr at 37° C. for recovery.
Recovered explants were washed and replaced with a fresh medium. 20 μl (10 μCi/ml) of sodium [^35S] sulfate was added and cartilage explants incubated for 72 h at 37° C. to radiolabel proteoglycans. The explants was washed thoroughly (5 times) to remove free radioisotope and incubated in serum free, F-12 medium (3% Ab) overnight. Explants were then incubated in quadruplicate in fresh, serum free mediums containing varied concentrations of Apo-501 (10^−7, 10^−6, 10^−5, and 10^−4) for 24 h. […] The extent of proteoglycan degradation in each cartilage treated with different concentrations of Apo501 was determined by measuring the radioactivity of [^35S] sulfate-glycosaminoglycans by a liquid scintillation counter. Sample of 100 μl medium was added to 5 ml of scintillation cocktail (Ready Safe, Beckmann) and counted. Proteoglycan degradation was expressed as radiolabelled glycosaminoglycans released into the media (counts per min per ml) per dry weight (mg) of cartilage.

The subject of another series is Transglutaminase. Description: Inhibition of transglutaminase, hydroxamate procedure, residual activity. In kind it is biochemical. The conditions noted are these: 100 μM (0.1 mM, 10% MeOH), one hour of incubation. How it is done:
Inhibition of transglutaminase by compounds of formula I (Enzyme Assay).
Transglutaminase activity is measured by the […] hydroxamate procedure (J. Biol. Chem., 1971, 246, 1093). The tested compounds were dissolved in methanol and added to a buffered solution of purified Transglutaminase to give a final concentration of 0.1 mM (10% MeOH). After on hour of incubation, the solution was assayed for residual activity using the standard activity assay.

The molecule `COc1nsc(N[C@@H](CC(C)C)C(=O)N2CCC[C@H]2C(=O)O)n1` [Example 11A, N-(3-methoxy-[1,2,4]thiadiazol-5-yl)-L-leucyl-L-proline] yielded a melting point of 89 to 92 °C.
Still for that read-out and setting: the result for `CC[C@H](C)[C@H](Nc1nc(OC)ns1)C(=O)N1CCC[C@H]1C(=O)OC` [Example 12A, N-(3-methoxy-[1,2,4]thiadiazol-5-yl)-L-iso-leucyl-L-proline methyl ester] reads 129 to 130 °C.
Still for that read-out and setting: the result for `CC[C@H](C)[C@H](Nc1nc(OC)ns1)C(=O)N1CCC[C@H]1C(=O)O` [Example 13, N-(3-methoxy-[1,2,4]thiadiazol-5-yl)-L-iso-leucyl-L-proline] reads 112 to 114 °C; that for `CC[C@H](C)[C@H](Nc1nc(C(=O)c2ccccc2)ns1)C(=O)N1CCC[C@H]1C(=O)O` [Example 16, N-[3-benzoyl-[1,2,4]thiadiazol-5-yl]-L-iso-leucyl-L-proline], 132 to 134 °C.
`CC(C)C[C@H](Nc1nc(-c2ccccc2)ns1)C(=O)N1CCC[C@H]1C(=O)O` [apo5O9, N-(3-Phenyl-[1,2,4]thiadiazol-5-yl)-L-leucyl-L-proline]: at Cathepsin B, the k3 stood at 0.013 s⁻¹, the Ki amounted to 74 µM and the kinact/KI came to 175 M⁻¹ s⁻¹.
Consider `COc1nsc(NC(=O)[C@H](Cc2ccccc2)NC(=O)OCc2ccccc2)n1` [apo201, 3-methoxy-5-(N-carbobenzyloxy-L-phenylalaninamido)-[1,2,4]thiadiazole], for which, at Cathepsin B, the k3 was 0.013 s⁻¹, the “k3/Ki (second order rate of inhibition)” value was 658 M⁻¹ s⁻¹ and the Ki was 21 µM.
On to `CC(C)CC(Nc1nc(C(=O)O)ns1)C(=O)N1CCCC1C(=O)O` (stereo not shown) [apo310], for which, on Cathepsin B, the k3 stood at 0.089 s⁻¹, the Ki turned out to be 300 µM and the kinact/KI turned out to be 293 M⁻¹ s⁻¹.
Turning to `COc1nsc(N[C@@H](CC(C)C)C(=O)N2CCC[C@H]2C(=O)O)n1` [apo501, N-{(3-methoxy)-[1,2,4]thiadiazol-5-yl}-L-leucyl-L-proline. tris(hydroxymethyl)methylamine salt], on Cathepsin B, the k3 came out at 0.015 s⁻¹, the Ki turned out to be 2.6 µM and the kinact/KI is 5630 M⁻¹ s⁻¹. In addition, in series [1], the “Reduction of IL-1-induced degradation of newly synthesized proteoglycan” value is 60%.
With `COc1nsc(NC(=O)N[C@@H](CC(C)C)C(=O)N2CCC[C@H]2C(=O)O)n1` [apo503], on Cathepsin B, the k3 was 0.014 s⁻¹, the “k3/Ki (second order rate of inhibition)” value was found to be 36 M⁻¹ s⁻¹ and the Ki is 390 µM.
The molecule `COc1nsc(NC(=O)[C@H](C)NC(=O)[C@H](Cc2ccccc2)NC(=O)OCc2ccccc2)n1` [apo504, 3-methoxy-5-(N-carbobenzyloxy-L-phenylalanyl-L-alaninamido)-[1,2,4]thiadiazole] returned a melting point of 161 to 162 °C. On Cathepsin B, the k3 was 0.032 s⁻¹, the Ki was determined as 37 µM and the kinact/KI worked out at 864 M⁻¹ s⁻¹. Moreover, in the series with Transglutaminase, the “Inhibition of the enzyme (residual activity)” value was “completely inhibits”.
On to `Cc1nsc(N[C@@H](CC(C)C)C(=O)N2CCC[C@H]2C(=O)O)n1` [apo510, N-(3-Methyl-[1,2,4]thiadiazol-5-yl)-L-leucyl-L-proline], for which, at Cathepsin B, the k3 was 0.026 s⁻¹, the Ki amounted to 447 µM and the kinact/KI came to 55 M⁻¹ s⁻¹.
For `COc1nsc(NC(=O)NC(CC(C)C)C(=O)NCCC(C)C)n1` (stereo not shown) [apo1073, 5-{3-methoxy-1,2,4-thiadiazolyl}carbamoyl-leucyl isoamylamide], at Cathepsin B, the k3 came to 0.032 s⁻¹, the “k3/Ki (second order rate of inhibition)” value worked out at 84 M⁻¹ s⁻¹ and the Ki was determined as 367 µM.
